Results published in patent US20030148269A1, “Centrifugally-enhanced method of determining ligand/target affinity” (priority 1999, published 2003).
Like-named read-outs stand apart in the source and are kept apart here.

What was measured:
[1] = target: T1, erythromycin resistant methylase (Erm-AM) (Streptococcus pneumoniae, UniProt P21236); format: binding; conditions: 25-compound library, mass spectrometry of five fractions, with Erm AM vs buffer only
T1 construct: made in house; host or cells: E. coli BL21(DE3)/pV4, pET-24(+)
Experimental: (§1) Proteins and protein fragments were isolated from recombinant material produced in E. coli as described in detail below. Proteins and protein fragments were dialyzed into standard buffers comprising either a) a mixture of 20 mM ammonium bicarbonate and 1 mM sodium azide, the pH adjusted to pH 7.2 by the addition of acetic acid, or b) 50 mM Tris-HCl, 30 mM KCl, 10 mM magnesium acetate, 10 mM 2-mercaptoethanol, 1 mM sodium azide, and 10% glycerol, pH adjusted to 7.8. In the case of the first buffer system, additional ingredients, specific to each protein, were added to the buffer mixture which included 5 mM 2-mercaptoethanol for erythromycin resistant methylase (Erm-AM), and both 5 mM 2-mercaptoethanol and 10 mM calcium chloride for the stromelysin catalytic domain (SCD). Initial protein or protein fragment concentrations ranged between 100 μM and 1 mM.
(§2) Test compounds were made up in concentrated solutions in dimethyl sulfoxide and diluted into the protein or protein fragment buffer solutions such that the final concentration of dimethyl sulfoxide in the buffer solutions was 1% volume/volume.
The compounds were added to the protein or buffer solutions in 7 mm×20 mm polycarbonate centrifuge tubes, mixed by vortexing, and placed in the centrifuge. Each mixture was then subjected to centrifugation at a speed and for a period of time sufficient to clear the solution of macromolecular target, but not of ligand. Centrifugation was carried out either in a Model TL-100 ultracentrifuge at 100,000 rpm using a TLA-100 rotor, or in a Model L-70 ultracentrifuge at 42,000 rpm using a type 42.2 rotor. (Both centrifuges are manufactured by Beckman Instruments, 1050 Page Mill Road, Palo Alto, Calif. […], USA.)
Following centrifugation, the tubes were removed from the rotor and the tube contents divided into equal volume fractions. Any reasonable number of fractions may be employed; typically four or five fractions are used. To take the fractions, a pipette was carefully inserted into the liquid column in the sample tube to a point just below the liquid meniscus. […] The fractions were individually dispensed into microfuge tubes for analysis.
Mass spectrometric analysis of the samples was performed using either electrospray ionization (ESI) or atmospheric pressure chemical ionization (APCI) techniques. The ESI technique employed either a Model TSQ-700 or a Model LCQ mass spectrometer, and the APCI technique employed a Model LCQ mass spectrometer (both instruments manufactured by the Finnigan Corporation, 355 River Oaks Parkway, San Jose, Calif. 95134, USA).
For ESI analysis, fraction samples were diluted 1:5 with 50% aqueous acetonitrile, leaving the protein or protein fragment in solution. Ten-microliter aliquots, each representing about 10% of the sample, were introduced individually into the instrument by flow injection using 50% aqueous acetonitrile as the carrier. For initial studies with APCI, fractions were likewise diluted 1:5 with 50% aqueous acetonitrile. […] To reduce this background, subsequent samples analyzed by the APCI technique were diluted 1:5 with neat acetonitrile which caused the proteins or protein fragments to release their bound test compounds and precipitate. Sample solutions were then clarified by centrifugation in a microfuge for five minutes prior to analysis by APCI.

[2] = Solubility in the centrifuge carrier solvent (buffer), spun without protein; format: physicochemical
Experimental: as §1
as §2, with “volume/volume. As a result, each compound in the mixture of test compounds had equal access to available binding sites on the target molecule.” for “volume/volume.”
The analysis was carried out with a 25-compound library using the spin-screen method of the present invention with the compound concentration gradients being determined by mass spectrometry. Sample preparation, centrifugation, analysis by mass spectrometry, and data analysis were according to the techniques described above under the heading “General Methodology.” The results are shown in FIGS. 3A and 3B. The figures represent planar cuts of the three-dimensional surface contour plot defined by the three axes: m/z, sample fraction, and mass spectral signal intensity. The planar cuts are taken at comparatively high values constant values of m/z. That is to say, at m/z signal levels which detected only the most strongly binding ligands in the 25-compound library.
The analysis was carried out with a 25-compound library using the spin-screen method of the present invention with the compound concentration gradients being determined by mass spectrometry. Sample preparation, centrifugation, analysis by mass spectrometry, and data analysis were according to the techniques described above under the heading “General Methodology.” The results are presented in FIGS. 5A and 5B.

[3] = target: T2, stromelysin catalytic domain (SCD) (Homo sapiens, UniProt P08254); experiment: Affinity (Ki) for SCD previously determined by another method; format: binding
Target sequence in this assay (P08254 100-273): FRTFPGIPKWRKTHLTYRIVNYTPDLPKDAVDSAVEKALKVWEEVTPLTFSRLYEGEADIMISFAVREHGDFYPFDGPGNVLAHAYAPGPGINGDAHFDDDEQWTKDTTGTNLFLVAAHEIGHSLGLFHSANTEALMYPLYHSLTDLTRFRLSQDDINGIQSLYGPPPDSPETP

[4] = target: T2, stromelysin catalytic domain (SCD); experiment: Spin-screen (centrifugation) affinity binding to SCD, concentration gradients by HPLC; design: coding for amino acid residues 81-256 plus an initiating methionine aminoacyl residue; initiating methionine (N); made in house; host or cells: E. coli BL21(DE3)/pLysS, plasmid pETST-81-256 (pET3d); conditions: 100 μM ligand, 100 μM SCD; HPLC of five fractions; with SCD vs buffer only
Experimental: as §1, §2
Target sequence in this assay (P08254 98-272): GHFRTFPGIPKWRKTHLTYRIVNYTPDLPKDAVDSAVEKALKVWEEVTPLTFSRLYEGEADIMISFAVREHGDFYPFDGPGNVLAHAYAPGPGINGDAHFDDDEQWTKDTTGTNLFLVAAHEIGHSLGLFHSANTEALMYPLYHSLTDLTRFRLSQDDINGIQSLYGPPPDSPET
The compounds were added to the protein or buffer solutions in 7 mm×20 mm polycarbonate centrifuge tubes, mixed by vortexing, and placed in the centrifuge. […]

[5] = target: yeast ribosomes isolated from Saccharomyces cerevisiae; experiment: spin-screen: centrifugation with yeast ribosomes, GFP fluorescence in each of five fractions
[6] = buffer with 1% dimethyl sulfoxide

T1 sequence (P21236 whole entry, change not shown): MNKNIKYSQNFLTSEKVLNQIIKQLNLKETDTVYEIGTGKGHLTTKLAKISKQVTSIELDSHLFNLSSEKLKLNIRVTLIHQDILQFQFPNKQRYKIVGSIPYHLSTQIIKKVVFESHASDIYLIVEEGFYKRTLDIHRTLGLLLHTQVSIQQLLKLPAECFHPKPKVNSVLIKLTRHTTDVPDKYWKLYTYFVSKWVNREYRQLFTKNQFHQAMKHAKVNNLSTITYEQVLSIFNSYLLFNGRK

Compound | Binding to Erm AM from concentration gradient after centrifugation [1] | fraction of total fluorescence (fraction of total fluorescence) [5] | also measured
O=c1cc(O)c2ccccc2n1-c1ccc(OCc2ccccc2)cc1 [4-hydroxy-1-[4-(phenylmethoxy)phenyl]-2(1H)-quinoline] | strongly bound | – | Binding to Erm AM from concentration gradient after centrifugation ([1]; listed as 4-hydroxy-1-[4-(phenylmethoxy)-phenyl]-2(1H)-quinoline): bind to Erm AM; Solubility in the carrier solvent [2, 6]: soluble
N#Cc1ccc(-c2ccc(O)cc2)cc1 [4′-hydroxy-1,1-biphenyl-4-carbonitrile] | – | – | Ki [3]: ~1000 µM; Binding to SCD from concentration gradient after centrifugation [4]: binds weakly
GFP-EF3 fusion protein GFP-980-1019 | – | 0.2 | –
GFP-EF3 fusion protein GFP-980-1008 | – | 0.2 | –
Nc1cc(Cl)c(S(N)(=O)=O)cc1S(N)(=O)=O [4-amino-6-chloro-1,3benzenesulfonamide] | medium binding | – | Binding to Erm AM from concentration gradient after centrifugation ([1]; listed as 4-amino-6-chloro-1,3-benzenesulfonamide): bind to Erm AM; Solubility in the carrier solvent [2, 6]: soluble
N-[3-(2,4-dichloro-6-hydroxyphenyl)propyl]-N′-(2,3-dihydro-1H-inden-2-yl) | strongly bind | – | Solubility in the carrier solvent [2]: insoluble
GFP-EF3 fusion protein GFP-980-1013 | – | 0.2 | –
GFP-EF3 fusion protein GFP-980-1008:1025-1031 | – | 0.2 | –
GFP-EF3 fusion protein GFP-980-1025 | – | 0.2 | –
O=C(Nc1ccc(C(=O)O)cc1)Nc1cccc(C(F)(F)F)c1 [4-[[[[3-(trifluoromethyl)phenyl]amino]-carbonyl]amino]benzoic acid] | bound weakly | – | Binding to Erm AM from concentration gradient after centrifugation ([1]; listed as 4-[[[(3-trifluoromethyl)-phenyl]amino]carbonyl]amino]benzoic acid): bind to Erm AM
Nc1nc(NC2CCCCC2)nc(N2CCCCC2)n1 [N-cyclohexyl-6-(1-piperidinyl)-1,3,5-triazine-2,4-diamine] | strongly bind | – | Binding to Erm AM from concentration gradient after centrifugation ([1]; listed as m/z=277): bound more strongly to Erm-AM than the compound at m/z=286; Solubility in the carrier solvent [2]: soluble
Nc1nc(NC2CCCCC2)nc(-c2ccc(O)cc2)n1 [4-[4-amino-6-(cyclohexylamino)-1,3,5-triazin-2-yl]phenol] | strongly bind | – | Solubility in the carrier solvent [2]: soluble
CN(CCCc1c(O)cc(Cl)cc1Cl)c1nc(N)nc(NC2CCCCC2)n1 [N′cyclohexyl-N-[3-(2,4-dichloro-6-hydroxyphenyl)propyl]-N-methyl-1,3,5triazine-2,4,6-triamine] | strongly bind | – | Solubility in the carrier solvent [2]: insoluble
O=C(O)c1ccccc1C(=O)OC(c1ccccc1)c1cccc(Cl)c1 (centres unmarked) [1,2-benzenedicarboxylic acid, mono[(3-chlorophenyl)phenylmethyl] ester] | bound strongly | – | Binding to Erm AM from concentration gradient after centrifugation ([1]; mono [(3-chloro-phenyl)phenylmethyl] ester): bind to Erm AM
